Earlier results on one molecule are cited in patent US20160008277A1, “CO-PACKAGED DRUG PRODUCTS” (Lightlake Therapeutics Inc., priority 2014, published 2016).

Read-outs that look alike come from different tables or passages of the source.

For series [1] the following is noted: 2 mg nasal solution dose; cited from earlier work.
Series [2] deals with patients with suspected narcotic overdose. The note with it: cited from earlier work.
The test system of series [3] is suspected opiate overdose. Particulars: cited from earlier work.

Turning to `C=CCN1CC[C@]23c4c5ccc(O)c4O[C@H]2C(=O)CC[C@@]3(O)[C@H]1C5` [naloxone, 17-allyl-4,5a-epoxy-3,14-dihydroxymorphinan-6-one], the “Cmax (predicted by Wermeling)” value in series [1] was 3 to 5 ng/mL. Moreover, the “tmax (predicted by Wermeling)” value in series [1] is reported as “approximately 20 minutes”. Also, the Clinical response noted is given as 66% in series [2] (IN group (2 mg), 33 of 50) and 56% in series [2] (IV group, 58 of 104). Further, the results for the “mean time between naloxone administration and clinical response” value in series [2] (IN group) and in series [2] (IV group) were 12.9 min and 8.1 min, respectively. Further, the “patients who received two doses of naloxone” value in series [2] (IN group) is on record as 34%; in series [2] (IV group), 18%. Moreover, the “patients with more than 10 spontaneous respirations per minute within 8 minutes” value in series [3] (2 mg IM group) is on record as 82%; in series [3] (2 mg IN group), 63%. In addition, the “patients needing rescue naloxone” value in series [3] (IM group) is reported as 13%; in series [3] (IN group), 26%.
